Measured values reported in patent US12304899B2, “Factor XI activation inhibitors” (Merck Sharp & Dohme LLC, priority 2019, dated 2025).

Biological target: T1, Human coagulation factor (F)XI (Homo sapiens, UniProt P03951)
T1 construct: purchased Haematologic Technologies Inc. (FXI); Enzyme Research Laboratories (FXIIa) HCXI-150 (FXI); HFXIIa (FXIIa)
Experiment: Inhibition of FXIIa mediated activation of FXI (activation of human Factor XI to XIa by human Factor α-XIIa)
Assay type: biochemical
Settings: human FXI pre-incubated with compound 30 min at 22° C., activation by human FXIIa 60 min, z-GPR-AFC substrate fluorescence, 4 parameter logistic fit; read-out: Inhibition of FXIIa meditated activation of FXI
Experimental: Inhibition of FXIIa Mediated Activation of FXI
Activation of Human Factor XI to XIa by Human Factor α-XIIa
The assay was performed in 50 mM HEPES, 150 mM NaCl, 5 mM CaCl2, 0.1% PEG-8000, pH 7.4 buffer in black, flat-bottom, polystyrene microplates (Corning, Cat #3573). Serial dilutions (10-point, 3.333-fold) of the test compounds delivered as 10 mM DMSO stocks were prepared in the Labcyte Echo-qualified PP 384 well microplates (Labcyte, Cat #P-05525). Human coagulation factor (F)XI (Haematologic Technologies Inc., Cat #HCXI-150, concentration 46 nM, 19.5 uL) was pre-incubated with 0.5 uL of the test compounds for 30 min at 22° C. The activation was initiated by addition of 10 uL of human coagulation factor (F)XIIa (Enzyme Research Laboratories, Cat #HFXIIa, concentration 30 nM) and the reaction proceeded for 60 min at 22° C., after which it was quenched by addition of a selective inhibitor of FXIIa (Compound 54 in International Patent Publication WO2018093695) concentration 600 uM in DMSO, 1 uL). 10 min after the quench, 29 uL of z-GPR-AFC substrate (Sigma, Cat #C0980-10 MG, concentration 200 uM) was added into each well and the detection reaction proceeded for 60 min at 22° C. Fluorescence at 405/510 nm was measured in end-point mode using an Envision plate-reader (Perkin Elmer). IDBS Activity Base XE (ABase) analysis using 4 parameter logistic fit was performed to determine Minimum, Maximum, EC50, and Slope Factor for each compound.

T1 sequence (P03951 19-625): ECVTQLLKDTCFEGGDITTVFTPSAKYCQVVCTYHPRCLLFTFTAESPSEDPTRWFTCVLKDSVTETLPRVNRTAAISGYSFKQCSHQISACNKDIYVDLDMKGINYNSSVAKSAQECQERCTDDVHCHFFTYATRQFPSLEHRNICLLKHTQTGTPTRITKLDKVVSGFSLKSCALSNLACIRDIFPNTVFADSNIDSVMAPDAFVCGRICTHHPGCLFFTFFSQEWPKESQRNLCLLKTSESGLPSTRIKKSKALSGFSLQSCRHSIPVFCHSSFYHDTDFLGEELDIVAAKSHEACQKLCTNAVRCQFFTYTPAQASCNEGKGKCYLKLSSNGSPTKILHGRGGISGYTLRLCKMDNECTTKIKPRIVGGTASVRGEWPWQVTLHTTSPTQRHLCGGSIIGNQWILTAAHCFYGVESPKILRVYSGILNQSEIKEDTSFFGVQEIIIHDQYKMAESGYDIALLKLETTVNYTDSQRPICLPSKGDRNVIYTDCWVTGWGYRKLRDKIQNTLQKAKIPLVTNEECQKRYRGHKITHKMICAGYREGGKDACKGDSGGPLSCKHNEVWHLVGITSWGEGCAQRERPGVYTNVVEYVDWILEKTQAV

| EC50 [nM] | SMILES |
| --- | --- |
| 21.8 | Cc1c(COc2ccc3nc(C(=O)N4CCC(C#N)(n5cccn5)CC4)cc(C(=O)N4CCCCC4)c3c2)ccc2c1COC2=O [Example 1, 1-(6-((4-methyl-1-oxo-1,3-dihydroisobenzofuran-5-yl)methoxy)-4-(piperidine-1-carbonyl)quinoline-2-carbonyl)-4-(1H-pyrazol-1-yl)piperidine-4-carbonitrile] |
| 19.5 | O=C(c1cc(C(=O)N2CCCCC2)c2cc(OCc3ccc4snnc4c3)ccc2n1)N1CCC(n2cccn2)CC1 [Example 7, (4-(1H-pyrazol-1-yl)piperidin-1-yl)(6-(benzo[d][1,2,3]thiadiazol-5-ylmethoxy)-4-(piperidine-1-carbonyl)quinolin-2-yl)methanone] |
| 49.2 | O=C(c1cc(C(=O)N2CCCCC2)c2cc(OCc3ccc4nnsc4c3)ccc2n1)N1CCC(n2cccn2)CC1 [Example 6, (4-(1H-pyrazol-1-yl)piperidin-1-yl)(6-(benzo[d][1,2,3]thiadiazol-6-ylmethoxy)-4-(piperidine-1-carbonyl)quinolin-2-yl)methanone] |
| 21.8 | O=C(c1cc(C(=O)N2CCCCC2)c2cc(OCc3ccc(C(F)(F)F)nc3)ccc2n1)N1CCC(n2cccn2)CC1 [Example 10, (4-(1H-pyrazol-1-yl)piperidin-1-yl)(4-(piperidine-1-carbon-yl)-6-((6-(trifluoromethyl)-pyridin-3-yl)methoxy)-quinolin-2-yl)methanone] |
| 48.7 | COc1ccc(COc2ccc3nc(C(=O)N4CCC(C#N)(c5ccccc5)CC4)cc(C(=O)N4CCCCC4)c3c2)c(C(F)(F)F)c1 [Example 42, 1-(6-((4-methoxy-2-(tri-fluoromethyl)benzyl)oxy)-4-(piperidine-1-carbonyl)quin-oline-2-carbonyl)-4-phenyl-piperidine-4-carbonitrile] |
| 71.5 | CN(C(=O)c1cc(C(=O)N2CCC(n3cccn3)CC2)nc2ccc(OCc3nc4ccccc4s3)cc12)C1CC1 [Example 54, 2-(4-(1H-pyrazol-1-yl)piperi-dine-1-carbonyl)-6-(benzo[d]-thiazol-2-ylmethoxy)-N-cyclo-propyl-N-methylquinoline-4-carboxamide] |
| 10.2 | N#CC1(n2cccn2)CCN(C(=O)c2cc(C(=O)N3CCCCC3)c3cc(OCc4ccc5snnc5c4)ccc3n2)CC1 [Example 76, 1-(6-(benzo[d][1,2,3]thiadiazol-5-ylmethoxy)-4-(piperidine-1-carbonyl)quinoline-2-carbonyl)-4-(1H-pyrazol-1-yl)piperidine-4-carbonitrile] |
| 16.8 | O=C(c1cc(C(=O)N2CCCCC2)c2cc(OCc3ncc(C(F)(F)F)cc3Cl)ccc2n1)N1CCC(n2cccn2)CC1 [Example 12, (4-(1H-pyrazol-1-yl)piperidin-1-yl)(6-((3-chloro-5-(trifluoro-methyl)pyridin-2-yl)methoxy)-4-(piperidine-1-carbonyl)-quinolin-2-yl)methanone] |
| 34.2 | O=C(c1cc(C(=O)N2CCCCC2)c2cc(OCc3cn4ccccc4n3)ccc2n1)N1CCC(n2cccn2)CC1 [Example 25, (4-(1H-pyrazol-1-yl)piperidin-1-yl)(6-(imidazo[1,2-a]-pyridin-2-ylmethoxy)-4-(piperidine-1-carbonyl)quin-olin-2-yl)methanone] |
| 30.1 | N#Cc1ccccc1COc1ccc2nc(C(=O)N3CCC(C#N)(c4ccccc4)CC3)cc(C(=O)N3CCCCC3)c2c1 [Example 30, 1-(6-((2-cyanobenzyl)oxy)-4-(piperidine-1-carbonyl)quin-oline-2-carbonyl)-4-phenyl-piperidine-4-carbonitrile] |
| 37.7 | N#CC1(c2ccccc2)CCN(C(=O)c2cc(C(=O)N3CCCCC3)c3cc(OCc4nc5ccccc5s4)ccc3n2)CC1 [Example 60, 1-(6-(benzo[d]thiazol-2-yl-methoxy)-4-(piperidine-1-carbonyl)quinoline-2-car-onyl)-4-phenylpiperidine-4-carbonitrile] |
| 30.5 | COc1cccc(COc2ccc3nc(C(=O)N4CCC(C#N)(c5ccccc5)CC4)cc(C(=O)N4CCCCC4)c3c2)c1 [Example 41, 1-(6-((3-methoxybenzyl)oxy)-4-(piperidine-1-carbonyl)quin-oline-2-carbonyl)-4-phenyl-piperidine-4-carbonitrile] |
| 19.1 | CS(=O)(=O)N1CCN(C(=O)c2cc(C(=O)N3CCCCC3)c3cc(OCc4nc5ccccc5s4)ccc3n2)CC1 [Example 68, (6-(benzo[d]thiazol-2-yl-methoxy)-2-(4-(methyl-sulfonyl)piperazine-1-carbonyl)quinolin-4-yl)-(piperidin-1-yl)methanone] |
| 24.9 | N#Cc1ccc(COc2ccc3nc(C(=O)N4CCC(C#N)(c5ccccc5)CC4)cc(C(=O)N4CCCCC4)c3c2)cc1 [Example 31, 1-(6-((4-cyanobenzyl)oxy)-4-(piperidine-1-carbonyl)quin-oline-2-carbonyl)-4-phenyl-piperidine-4-carbonitrile] |
| 41.4 | N#CC1(c2ccccc2)CCN(C(=O)c2cc(C(=O)N3CCCCC3)c3cc(OCc4ccc(-c5nnco5)cc4)ccc3n2)CC1 [Example 34, 1-(6-((4-(1,3,4-oxadiazol-2-yl)benzyl)oxy)-4-(piperidine-1-carbonyl)quinoline-2-car-bonyl)-4-phenylpiperidine-4-carbonitrile] |
| 34.7 | O=C(c1cc(C(=O)N2CCCCC2)c2cc(OCc3nc4ccccc4s3)ccc2n1)N1CCN(CC(F)F)CC1 [Example 67, (6-(benzo[d]thiazol-2-yl-methoxy)-2-(4-(2,2-difluoroethyl)piperazine-1-carbonyl)quinolin-4-yl)-(piperidin-1-yl)methanone] |
| 14.7 | O=C(c1cc(C(=O)N2CCCCC2)c2cc(OCc3ccc4nonc4c3)ccc2n1)N1CCC(n2cccn2)CC1 [Example 14, (4-(1H-pyrazol-1-yl)piperidin-1-yl)(6-(benzo[c][1,2,5]-oxadiazol-5-ylmethoxy)-4-(piperidine-1-carbonyl)-quinolin-2-yl)methanone] |
| 31.8 | Cc1c(COc2ccc3nc(C(=O)N4CCC(C)(O)C4)cc(C(=O)N4CCCCC4)c3c2)ccc2c1COC2=O (single isomer, unassigned) [Example 5a, 5-(((2-(3-hydroxy-3-methylpyrrolidine-1-carbonyl)-4-(piperidine-1-carbonyl)quinolin-6-yl)oxy)methyl)-4-methylisobenzofuran-1(3H)-one] |
| 35.9 | N#CC1(c2ccccc2)CCN(C(=O)c2cc(C(=O)N3CCCCC3)c3cc(OCc4cccc(OC(F)F)c4)ccc3n2)CC1 [Example 33, 1-(6-((3-(difluoro-l3-meth-oxy)phenyl)methoxy)-4-(piperidine-1-carbonyl)quin-oline-2-carbonyl)-4-phenyl-piperidine-4-carbonitrile] |
| 36.6 | O=C(c1cc(C(=O)N2CCCCC2)c2cc(OCc3nc4ccccc4o3)ccc2n1)N1CCC(n2cccn2)CC1 [Example 23, (4-(1H-pyrazol-1-yl)piperidin-1-yl)(6-(benzo[d]oxazol-2-ylmethoxy)-4-(piperidine-1-carbonyl)quinolin-2-yl) methanone] |
| 19.1 | O=C(c1cc(C(=O)N2CCCCC2)c2cc(OCc3nc4ccccc4s3)ccc2n1)N1CCC2(CC1)CC2(F)F [Example 62, (6-(benzo[d]thiazol-2-yl-methoxy)-2-(1,1-difluoro-6-azaspiro[2.5]octane-6-carbonyl)quinolin-4-yl)-(piperidin-1-yl)methanone] |
| 19.1 | O=C(c1cc(C(=O)N2CCCCC2)c2cc(OCc3nc4ccccc4s3)ccc2n1)N1CCN(CC(F)(F)F)CC1 [Example 65, (6-(benzo[d]thiazol-2-yl-methoxy)-2-(4-(2,2,2-trifluoroethyl)piperazine-1-carbonyl)quinolin-4-yl)-(piperidin-1-yl)methanone] |
| 35.8 | O=C1OCc2ccc(COc3ccc4nc(C(=O)N5CCC(n6cccn6)CC5)cc(C(=O)N5CCCCC5)c4c3)cc21 [Example 20, 6-(((2-(4-(1H-pyrazol-1-yl)-piperidine-1-carbonyl)-4-(piperidine-1-carbonyl)-quinolin-6-yl)oxy)methyl)-isobenzofuran-1(3H)-one] |
| 15 | N#CC1(c2ccccc2)CCN(C(=O)c2cc(C(=O)N3CCCCC3)c3cc(OCc4nc5ccccc5s4)ccc3n2)CC1 [Example 49, 1-(6-(benzo[d]thiazol-2-yl-methoxy)-4-(piperidine-1-carbonyl)quinoline-2-carbonyl)-4-phenylpiperi-dine-4-carbonitrile] |
| 28.9 | O=C(c1cc(C(=O)N2CCCCC2)c2cc(OCc3nc4ccccc4s3)ccc2n1)N1CCC(n2cccn2)CC1 [Example 26, (4-(1H-pyrazol-1-yl)piperidin-1-yl)(6-(benzo[d]thiazol-2-ylmethoxy)-4-(piperidine-1-carbonyl)quinolin-2-yl) methanone] |
